Assay results: patent US12178839B2, “Anti-obesity agent, pollakiuria improving agent, and autonomic nervous activity regulator” (ASAHI GROUP HOLDINGS, LTD., priority 2018, dated 2024)
Ends that are not written are not given here.

System: Male Wistar rats
Experiment: Rat spontaneous urination test (metabolism cage), Test Example 6
Type: in vivo
Conditions: aqueous 0.1 mg/mL LNDP solution as drinking for 7 days
Protocol: It was confirmed from Test Example 2 that LNDP promotes the efferent hypogastric nerve activity, and it was confirmed from Test Example 3 that LNDP inhibits the efferent the pelvic splanchnic nerve activity. Influence on the bladder, which is one of the internal organs dominated by these nerves, was therefore investigated.
Male Wistar rats which are 13 weeks old were received, and quarantined and acclimated in a thermostat animal room at 18 to 28° C. in a cycle including a 12-hour light period and a 12-hour dark period for 1 week, and ten 14- to 16-week-old rats per group were tested. An aqueous 0.1 mg/mL LNDP solution or water was ingested from drinking for 7 days, and the urination amount was measured as weight with an electronic balance installed under a urine-collecting opening in raising with a metabolism cage. The weight data of the electronic balance every minute were automatically inputted into a computer. […] The total urination amount and the frequency of urination per day were found, and the urine amount per one time of urination (=the total urination amount per day/the frequency of urination per day) was calculated as to an individual of each group. […] As to the comparison of the test substance and ingestion days with respect to each measured value, two-way analysis of variance (two-way ANOVA) with replication was performed.

significant difference in the general symptoms vs water ingestion group: not observed
Sequence: NIPPLTQTPVVVPPFLQPE [LNDP, Asn-Ile-Pro-Pro-Leu-Thr-Gln-Thr-Pro-Val-Val-Val-Pro-Pro-Phe-Leu-Gln-Pro-Glu]
significant difference in change in body weight vs water ingestion group: not observed
